Reference: ChEMBL document CHEMBL4196171, “Design of Gut-Restricted Thiazolidine Agonists of G Protein-Coupled Bile Acid Receptor 1 (GPBAR1, TGR5)” (J Med Chem, 2018)
Converted amounts (≈) assume the structure as drawn.

Legend:
[1] = Solubility in FeSSIF solution at 1 mg/ml at […] by HPLC with UV detector based assay; type: physicochemical
[2] = Drug concentration in bile/gall bladder of C57BL/6 mouse at 30 mg/kg, po measured after 8 hrs by HPLC and mass spectrometry; type: ADME, organism-based; conditions: read-out: Drug uptake
[3] = Plasma concentration in C57BL/6 mouse at 30 mg/kg, po measured after 8 hrs by HPLC and mass spectrometry; type: ADME, organism-based
[4] = Cmax in C57BL/6 mouse plasma at 10 mg/kg, po by HPLC and mass spectrometry; type: ADME, organism-based; design: dose 10 mg/kg, route oral
[5] = AUC in C57BL/6 mouse plasma at 10 mg/kg, po by HPLC and mass spectrometry; type: ADME, organism-based
[6] = Drug recovery in C57BL/6 mouse feces at 10 mg/kg, po after 48 hrs by LC-MS/MS method; type: ADME, organism-based; conditions: faeces, read-out: Drug recovery
[7] = Drug recovery in C57BL/6 mouse bile/gall bladder at 30 mg/kg, po by LC-MS/MS method; type: ADME, organism-based; conditions: read-out: Drug recovery
[8] = Apparent permeability from apical to basolateral side in MDCK cells at 10 uM by HPLC-MS/MS method; type: ADME, cell-based, Canis lupus familiaris; conditions: dog
[9] = Apparent permeability from basolateral to apical side in MDCK cells at 10 uM by HPLC-MS/MS method; type: ADME, cell-based, Canis lupus familiaris; conditions: dog
[10] = Plasma concentration in C57BL/6 DIO mouse at 30 mg/kg, po measured after 4 to 16 hrs post dose by HPLC and mass spectrometry; type: ADME, organism-based; conditions: in vivo
[11] = Plasma concentration in C57BL/6 DIO mouse at 100 mg/kg, po measured after 4 to 16 hrs post dose by HPLC and mass spectrometry; type: ADME, organism-based; conditions: in vivo

| SMILES | concentration at 8 h [2] [nM] | concentration at 8 h [3] [ng/mL] | other results |
| --- | --- | --- | --- |
| O=C(NC[C@H](O)[C@@H](O)[C@H](O)[C@H](O)CO)c1ccc(COc2cc(Cl)c(CN3CSC[C@H]3C(=O)N3CCN(C4CC4)c4ccccc43)cc2Cl)cc1 | 90 | < 2 | solubility [1]: 820 µg/mL (≈ 1080 µM); Cmax [4]: 2 ng/mL; AUC [5]: < 5 ng·h/mL; dose excreted at 48 h [6]: 83%; dose excreted [7]: < 0.01%; Papp A→B at 10 µM [8]: < 0.01 ×10⁻⁶ cm/s; Papp B→A at 10 µM [9]: 0.07 ×10⁻⁶ cm/s; Drug uptake [10]: Not Active; Drug uptake [11]: Not Active |
| O=C([C@@H]1CCCN1Cc1cc(Cl)ccc1Cl)N1CCN(C2CC2)c2ccccc21 | – | – | solubility [1]: 360 µg/mL (≈ 836 µM) |
| O=C(c1cccnc1Oc1cc(Cl)ccc1Cl)N1CCN(C2CC2)c2ccccc21 | – | – | solubility [1]: < 50 µg/mL |
| O=C(CCCCc1cc(Cl)c(CN2CSC[C@H]2C(=O)N2CCN(C3CC3)c3ccccc32)cc1Cl)N[C@@H](C(=O)O)[C@@H](O)[C@H](O)[C@H](O)CO | 3900 | 28.1 | – |
| O=C(NCCCCCc1cc(Cl)c(CN2CSC[C@H]2C(=O)N2CCN(C3CC3)c3ccccc32)cc1Cl)NCP(=O)(O)O | 3100 | 24.8 | – |
| CN(C[C@H](O)[C@@H](O)[C@H](O)[C@H](O)CO)C(=O)CC[C@H](NC(=O)CCCCc1cc(Cl)c(CN2CSC[C@H]2C(=O)N2CCN(C3CC3)c3ccccc32)cc1Cl)C(=O)O | 1900 | 2.3 | – |
| O=C(NCCCN(CCCNC(=O)[C@H](O)[C@@H](O)[C@H](O)[C@H](O)CO)C(=O)NCCCCOc1cc(Cl)c(CN2CSC[C@H]2C(=O)N2CCN(C3CC3)c3ccccc32)cc1Cl)[C@H](O)[C@@H](O)[C@H](O)[C@H](O)CO | 300 | – | – |
| O=C(O)CNC(=O)[C@H](CSSC[C@H](NC(=O)CC[C@H](NC(=O)CCCCc1cc(Cl)c(CN2CSC[C@H]2C(=O)N2CCN(C3CC3)c3ccccc32)cc1Cl)C(=O)O)C(=O)NCC(=O)O)NC(=O)CC[C@H](NC(=O)CCCCc1cc(Cl)c(CN2CSC[C@H]2C(=O)N2CCN(C3CC3)c3ccccc32)cc1Cl)C(=O)O | < 100 | < 10 | – |

Continued, in another order:

| concentration at 8 h [2] [nM] | concentration at 8 h [3] [ng/mL] | SMILES | other results |
| --- | --- | --- | --- |
| 1300 | 3.6 | CN(C[C@H](O)[C@@H](O)[C@H](O)[C@H](O)CO)C(=O)CCCCc1cc(Cl)c(CN2CSC[C@H]2C(=O)N2CCN(C3CC3)c3ccccc32)cc1Cl | – |
| 4700 | – | O=C(O)CN(CCCCCc1cc(Cl)c(CN2CSC[C@H]2C(=O)N2CCN(C3CC3)c3ccccc32)cc1Cl)CC(=O)O | – |
| 600 | < 0.5 | O=C(O)CNC(=O)CNC(=O)CNC(=O)CCCCc1cc(Cl)c(CN2CSC[C@H]2C(=O)N2CCN(C3CC3)c3ccccc32)cc1Cl | – |
| 3700 | – | O=C(O)CN(C[C@H](O)[C@@H](O)[C@H](O)[C@H](O)CO)C(=O)CCCCc1cc(Cl)c(CN2CSC[C@H]2C(=O)N2CCN(C3CC3)c3ccccc32)cc1Cl | – |
| 6000 | 1.2 | O=C(NCCCCCc1cc(Cl)c(CN2CSC[C@H]2C(=O)N2CCN(C3CC3)c3ccccc32)cc1Cl)NC(CO)(CO)CO | – |
| 1700 | 0.6 | C[C@@H](NC(=O)[C@@H](C)NC(=O)[C@@H](C)NC(=O)CCCCc1cc(Cl)c(CN2CSC[C@H]2C(=O)N2CCN(C3CC3)c3ccccc32)cc1Cl)C(=O)O | – |
| 80 | 2.8 | O=C(NCCCCCc1cc(Cl)c(CN2CSC[C@H]2C(=O)N2CCN(C3CC3)c3ccccc32)cc1Cl)N1CCN(CP(=O)(O)O)CC1 | – |
